This note sets out measurements from article PMC10004634 (PLOS ONE, 2023).

Some targets named below: DMPK (Homo sapiens, UniProt Q09013); EPHB1 (Homo sapiens, UniProt P54762); INSRR (Homo sapiens, UniProt P14616); KIT(V559D,V654A) (Homo sapiens, UniProt P10721, V559D/V654A); MAP4K5 (Homo sapiens, UniProt Q9Y4K4); MUSK (Homo sapiens, UniProt O15146); MYLK (Homo sapiens, UniProt Q15746); PAK3 (Homo sapiens, UniProt O75914); PIK3C2B (Homo sapiens, UniProt O00750); RET(V804L) (Homo sapiens, UniProt P07949, V804L); SNRK (Homo sapiens, UniProt Q9NRH2); STK36 (Homo sapiens, UniProt Q9NRP7).

Holding throughout (test): biochemical
Design in all cases: KINOMEscan scanMAX competition binding, DNA-tagged kinases, qPCR read-out, percent control at 300 nM
In general terms: Quantitative PCR measures a nucleic acid by following its amplification.

Assay [1] deals with T1, ABL1(Q252H)-phosphorylated (Homo sapiens, UniProt P00519, Q252H).
T1 construct: phosphorylated

The target of assay [2] is T2, ABL1(F317L)-nonphosphorylated (Homo sapiens, UniProt P00519, F317L).
T2 construct: nonphosphorylated

Another assay addresses T3, ABL1-phosphorylated (Homo sapiens, UniProt P00519).
T3 construct: phosphorylated

The next assay deals with T4, DRAK1 (Homo sapiens, UniProt Q9UEE5).
T4 construct: gene STK17A

The target in a further assay is T5, DRAK2 (Homo sapiens, UniProt O94768).
T5 construct: gene STK17B
T5 sequence (O94768 whole entry): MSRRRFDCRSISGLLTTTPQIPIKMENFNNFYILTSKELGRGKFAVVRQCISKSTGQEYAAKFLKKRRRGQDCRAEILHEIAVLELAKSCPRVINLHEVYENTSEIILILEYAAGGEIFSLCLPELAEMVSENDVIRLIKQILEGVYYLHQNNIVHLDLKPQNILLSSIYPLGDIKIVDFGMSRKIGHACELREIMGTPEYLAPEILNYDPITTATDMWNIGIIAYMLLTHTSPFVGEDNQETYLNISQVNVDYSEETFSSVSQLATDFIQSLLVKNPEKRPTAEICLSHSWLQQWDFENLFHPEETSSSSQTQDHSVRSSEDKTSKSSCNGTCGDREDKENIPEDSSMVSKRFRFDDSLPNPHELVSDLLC

The next assay has as its target T6, ERK5 (Homo sapiens, UniProt Q13164).
T6 construct: gene MAPK7

For a further assay, the target named is T7, MRCKA (Homo sapiens, UniProt Q5VT25).
T7 construct: gene CDC42BPA
T7 sequence (Q5VT25 whole entry): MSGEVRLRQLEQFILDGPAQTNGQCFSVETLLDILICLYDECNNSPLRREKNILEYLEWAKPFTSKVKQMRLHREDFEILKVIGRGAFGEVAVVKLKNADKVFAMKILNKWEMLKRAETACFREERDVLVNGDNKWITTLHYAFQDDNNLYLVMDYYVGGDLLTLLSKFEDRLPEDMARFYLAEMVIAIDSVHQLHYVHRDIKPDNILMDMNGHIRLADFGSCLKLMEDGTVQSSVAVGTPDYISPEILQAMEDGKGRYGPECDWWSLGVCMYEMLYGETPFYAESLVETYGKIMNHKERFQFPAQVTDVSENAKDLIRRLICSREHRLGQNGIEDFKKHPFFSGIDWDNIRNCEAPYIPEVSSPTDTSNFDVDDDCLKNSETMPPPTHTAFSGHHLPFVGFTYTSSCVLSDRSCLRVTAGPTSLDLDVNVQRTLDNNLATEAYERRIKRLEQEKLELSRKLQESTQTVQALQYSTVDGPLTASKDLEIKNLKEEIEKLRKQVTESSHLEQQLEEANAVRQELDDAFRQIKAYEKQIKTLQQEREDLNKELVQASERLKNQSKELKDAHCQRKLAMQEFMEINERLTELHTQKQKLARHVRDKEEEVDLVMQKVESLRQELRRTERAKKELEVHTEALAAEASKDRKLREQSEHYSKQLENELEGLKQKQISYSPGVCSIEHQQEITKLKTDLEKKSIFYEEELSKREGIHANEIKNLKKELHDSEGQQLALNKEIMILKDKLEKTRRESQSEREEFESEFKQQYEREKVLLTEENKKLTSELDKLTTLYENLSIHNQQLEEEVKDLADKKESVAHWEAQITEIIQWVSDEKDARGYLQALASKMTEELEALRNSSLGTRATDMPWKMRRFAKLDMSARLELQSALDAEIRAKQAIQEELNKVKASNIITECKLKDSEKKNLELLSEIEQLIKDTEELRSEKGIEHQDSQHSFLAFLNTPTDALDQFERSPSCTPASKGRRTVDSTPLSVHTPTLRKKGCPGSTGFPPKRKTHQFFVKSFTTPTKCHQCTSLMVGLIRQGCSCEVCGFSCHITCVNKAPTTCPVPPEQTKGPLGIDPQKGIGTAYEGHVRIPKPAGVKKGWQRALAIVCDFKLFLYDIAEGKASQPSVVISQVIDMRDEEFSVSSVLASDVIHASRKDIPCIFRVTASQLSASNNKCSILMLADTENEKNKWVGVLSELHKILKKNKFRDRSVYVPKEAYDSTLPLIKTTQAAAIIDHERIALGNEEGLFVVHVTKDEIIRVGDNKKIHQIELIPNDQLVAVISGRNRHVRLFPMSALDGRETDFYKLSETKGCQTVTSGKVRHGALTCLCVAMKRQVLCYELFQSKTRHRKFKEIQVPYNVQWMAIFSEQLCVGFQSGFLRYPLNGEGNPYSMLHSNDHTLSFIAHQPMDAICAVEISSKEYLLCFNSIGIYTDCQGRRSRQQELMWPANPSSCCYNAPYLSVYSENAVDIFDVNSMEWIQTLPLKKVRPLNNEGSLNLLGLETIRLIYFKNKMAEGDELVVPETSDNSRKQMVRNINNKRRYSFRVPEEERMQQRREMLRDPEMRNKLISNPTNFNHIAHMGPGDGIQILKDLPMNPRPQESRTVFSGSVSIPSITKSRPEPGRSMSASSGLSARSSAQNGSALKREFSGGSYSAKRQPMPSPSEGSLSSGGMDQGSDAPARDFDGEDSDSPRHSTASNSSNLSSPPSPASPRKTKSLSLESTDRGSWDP

For a further assay, the target named is T8, MRCKB (Homo sapiens, UniProt Q9Y5S2).
T8 construct: gene CDC42BPB

The next assay has as its target T9, SgK110 (Homo sapiens, UniProt P0C264).
T9 construct: gene SBK3

Assay [3] concerns the target T10, RSK3(Kin.Dom.2-C-terminal) (Homo sapiens, UniProt Q15349).
T10 construct: gene RPS6KA2; Kin.Dom.2-C-terminal

For a further assay, the target named is T11, TIE2 (Homo sapiens, UniProt Q02763).
T11 construct: gene TEK

Where [4] appears, read: read-out: Percent control / Tirabrutinib.
[5] abbreviates: read-out: Percent control / Acalabrutinib.
The mark [6] stands for this setting: read-out: Percent control / Ibrutinib.
Where [7] appears, read: read-out: Percent control / Zanubrutinib.

The structures appear in SMILES notation. Like-named read-outs stand apart in the source and are kept apart here.

T10 sequence (Q15349 whole entry): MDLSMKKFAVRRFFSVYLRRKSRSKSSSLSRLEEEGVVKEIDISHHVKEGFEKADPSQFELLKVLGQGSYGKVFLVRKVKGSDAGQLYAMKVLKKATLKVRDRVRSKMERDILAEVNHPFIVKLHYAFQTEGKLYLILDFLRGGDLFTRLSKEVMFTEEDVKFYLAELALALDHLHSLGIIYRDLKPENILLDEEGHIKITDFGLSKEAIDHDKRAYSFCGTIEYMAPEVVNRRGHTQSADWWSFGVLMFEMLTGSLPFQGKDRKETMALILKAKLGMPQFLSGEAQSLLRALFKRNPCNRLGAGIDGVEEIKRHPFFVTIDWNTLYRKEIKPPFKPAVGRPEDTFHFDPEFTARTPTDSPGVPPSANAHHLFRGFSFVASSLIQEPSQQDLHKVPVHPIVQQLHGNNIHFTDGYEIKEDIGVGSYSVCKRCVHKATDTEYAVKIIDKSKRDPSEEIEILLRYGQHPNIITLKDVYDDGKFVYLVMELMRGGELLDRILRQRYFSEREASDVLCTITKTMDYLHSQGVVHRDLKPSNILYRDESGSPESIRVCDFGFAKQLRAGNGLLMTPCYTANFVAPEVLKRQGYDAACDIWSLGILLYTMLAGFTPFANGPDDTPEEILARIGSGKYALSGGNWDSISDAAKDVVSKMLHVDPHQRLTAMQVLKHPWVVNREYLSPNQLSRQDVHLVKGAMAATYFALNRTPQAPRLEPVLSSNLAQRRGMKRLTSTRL
Chain of MUSK (O15146 whole entry): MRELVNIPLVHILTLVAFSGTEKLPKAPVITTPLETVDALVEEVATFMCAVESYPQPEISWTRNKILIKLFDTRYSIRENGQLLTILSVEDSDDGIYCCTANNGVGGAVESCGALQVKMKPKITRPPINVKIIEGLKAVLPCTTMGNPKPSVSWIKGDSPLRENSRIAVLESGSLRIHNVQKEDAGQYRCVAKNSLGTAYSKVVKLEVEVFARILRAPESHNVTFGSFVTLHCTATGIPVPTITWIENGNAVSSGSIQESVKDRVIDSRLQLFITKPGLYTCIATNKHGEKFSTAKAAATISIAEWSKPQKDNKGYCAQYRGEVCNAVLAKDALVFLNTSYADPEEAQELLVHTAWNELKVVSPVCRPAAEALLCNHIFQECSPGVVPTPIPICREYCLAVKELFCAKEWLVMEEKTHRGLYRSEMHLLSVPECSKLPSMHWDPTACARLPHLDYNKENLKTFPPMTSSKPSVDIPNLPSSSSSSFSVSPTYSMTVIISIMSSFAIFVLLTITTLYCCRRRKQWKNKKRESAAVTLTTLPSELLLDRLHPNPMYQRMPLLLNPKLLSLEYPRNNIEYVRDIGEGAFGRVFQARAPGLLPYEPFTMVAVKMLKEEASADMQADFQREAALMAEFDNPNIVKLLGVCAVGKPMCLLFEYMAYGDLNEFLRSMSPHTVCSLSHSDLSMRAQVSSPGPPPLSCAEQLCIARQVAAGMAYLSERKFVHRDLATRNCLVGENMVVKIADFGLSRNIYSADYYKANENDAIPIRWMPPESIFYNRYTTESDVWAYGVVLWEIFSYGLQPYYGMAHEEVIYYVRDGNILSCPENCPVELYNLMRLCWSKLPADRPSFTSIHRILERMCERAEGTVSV
Chain of SNRK (Q9NRH2 whole entry): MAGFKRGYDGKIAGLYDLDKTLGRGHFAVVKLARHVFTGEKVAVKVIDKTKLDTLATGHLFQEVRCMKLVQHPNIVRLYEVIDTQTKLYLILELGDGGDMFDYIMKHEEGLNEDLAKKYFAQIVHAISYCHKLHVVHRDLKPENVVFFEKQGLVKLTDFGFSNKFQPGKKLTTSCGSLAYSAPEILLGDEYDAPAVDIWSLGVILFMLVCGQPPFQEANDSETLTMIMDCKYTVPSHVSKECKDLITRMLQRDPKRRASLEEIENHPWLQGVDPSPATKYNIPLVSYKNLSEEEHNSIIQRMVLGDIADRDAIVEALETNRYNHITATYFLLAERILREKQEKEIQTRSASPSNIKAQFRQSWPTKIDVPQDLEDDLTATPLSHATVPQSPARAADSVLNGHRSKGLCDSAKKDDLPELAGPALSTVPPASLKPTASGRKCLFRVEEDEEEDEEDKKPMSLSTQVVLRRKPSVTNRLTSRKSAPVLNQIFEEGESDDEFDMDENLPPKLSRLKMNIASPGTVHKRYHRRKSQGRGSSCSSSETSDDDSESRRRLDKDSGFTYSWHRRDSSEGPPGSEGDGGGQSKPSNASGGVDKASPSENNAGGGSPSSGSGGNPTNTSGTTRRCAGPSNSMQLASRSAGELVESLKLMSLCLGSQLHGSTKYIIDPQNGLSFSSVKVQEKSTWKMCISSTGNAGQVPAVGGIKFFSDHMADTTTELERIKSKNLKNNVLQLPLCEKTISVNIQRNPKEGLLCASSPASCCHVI
Chain of DMPK (Q09013 whole entry): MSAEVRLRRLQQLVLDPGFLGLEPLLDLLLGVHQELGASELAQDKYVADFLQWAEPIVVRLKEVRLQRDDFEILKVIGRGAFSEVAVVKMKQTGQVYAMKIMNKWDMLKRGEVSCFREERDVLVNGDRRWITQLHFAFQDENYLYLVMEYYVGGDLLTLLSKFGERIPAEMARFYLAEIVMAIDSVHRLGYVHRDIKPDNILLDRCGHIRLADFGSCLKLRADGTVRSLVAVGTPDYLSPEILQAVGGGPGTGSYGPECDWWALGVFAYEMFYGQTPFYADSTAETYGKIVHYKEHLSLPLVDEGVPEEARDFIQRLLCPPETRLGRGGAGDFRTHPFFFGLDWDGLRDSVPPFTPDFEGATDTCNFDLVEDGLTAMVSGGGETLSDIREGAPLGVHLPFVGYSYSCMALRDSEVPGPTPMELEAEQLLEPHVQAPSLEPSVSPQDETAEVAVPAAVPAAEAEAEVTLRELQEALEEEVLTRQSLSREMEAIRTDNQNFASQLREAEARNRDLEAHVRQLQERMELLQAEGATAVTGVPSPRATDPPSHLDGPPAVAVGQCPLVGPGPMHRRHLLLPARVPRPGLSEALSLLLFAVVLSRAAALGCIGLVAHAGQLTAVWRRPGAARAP

As to `CC#CC(=O)N1CC[C@@H](n2c(=O)n(-c3ccc(Oc4ccccc4)cc3)c3c(N)ncnc32)C1` [Tirabrutinib], the remaining binding at 0.3 µM in assay [1] (setting [4]) was determined as 87%; on DMPK (setting [4]), 93%.

For the molecule `CC#CC(=O)N1CCC[C@H]1c1nc(-c2ccc(C(=O)Nc3ccccn3)cc2)c2c(N)nccn12` [Acalabrutinib], the remaining binding at 0.3 µM in assay [2] (setting [5]) turned out to be 78%; in assay [1] (setting [5]), 86%; at ABL1-phosphorylated (setting [5]), 95%; on DRAK1 (setting [5]), 95%; at DRAK2 (setting [5]) it was 97%; on EPHB1 (setting [5]), 93%. Besides, the remaining binding at 0.3 µM on ERK5 (setting [5]) is 97%; on INSRR (setting [5]) it was 91%; at KIT(V559D,V654A) (setting [5]), 94%; at MAP4K5 (setting [5]), 90%; on MRCKA (setting [5]) it was 96%; at MRCKB (setting [5]) it was 93%. Further, the remaining binding at 0.3 µM stood at 82% on MUSK (setting [5]); 82% at MYLK (setting [5]); 77% at PAK3 (setting [5]); 93% at PIK3C2B (setting [5]); 99% at RET(V804L) (setting [5]); 93% at SNRK (setting [5]). Also, the remaining binding at 0.3 µM at STK36 (setting [5]) came to 90%; at SgK110 (setting [5]), 94%.

As to `C=CC(=O)N1CCC[C@@H](n2nc(-c3ccc(Oc4ccccc4)cc3)c3c(N)ncnc32)C1` [Ibrutinib], the remaining binding at 0.3 µM in [2] (setting [6]) was 54%; on DRAK1 (setting [6]) it was 74%; at DRAK2 (setting [6]), 82%; in [3] (setting [6]), 90%; on STK36 (setting [6]), 71%; on TIE2 (setting [6]), 72%.

Regarding `C=CC(=O)N1CCC([C@@H]2CCNc3c(C(N)=O)c(-c4ccc(Oc5ccccc5)cc4)nn32)CC1` [Zanubrutinib], the remaining binding at 0.3 µM at ABL1-phosphorylated (setting [7]) was 77%; on DMPK (setting [7]), 90%; on EPHB1 (setting [7]) it was 96%; on ERK5 (setting [7]), 84%; at INSRR (setting [7]) it was 96%; at KIT(V559D,V654A) (setting [7]), 90%. For the same molecule, the remaining binding at 0.3 µM is 98% at MAP4K5 (setting [7]); 100% on MRCKA (setting [7]); 90% at MRCKB (setting [7]); 96% at MUSK (setting [7]); 82% at MYLK (setting [7]); 83% on PAK3 (setting [7]). Besides, the remaining binding at 0.3 µM at PIK3C2B (setting [7]) stood at 62%; on RET(V804L) (setting [7]), 100%; in assay [3] (setting [7]), 84%; on SNRK (setting [7]), 90%; at SgK110 (setting [7]), 91%; on TIE2 (setting [7]), 99%.
